Data from US8334288B2, “4-phenoxymethylpiperidines as modulators of GPR119 activity” (IRM LLC, priority 2008, dated 2012).

biological target: T1, human GPR119 (Homo sapiens, UniProt Q8TDV5); test: Cyclic AMP assay in stable cell line (HTRF, Flp-In-CHO-hGPR119 cells); format: cell-based; conditions: increase in intracellular cAMP, 30 minutes at 37° C., 1 mM IBMX
T1 construct: expressed in transfected cells; host or cells: Flp-In-CHO cells (Invitrogen, Cat. #R758-07), stably transfected with pcDNA5/FRT-human GPR119 plus pOG44
T1 sequence (Q8TDV5 1-335): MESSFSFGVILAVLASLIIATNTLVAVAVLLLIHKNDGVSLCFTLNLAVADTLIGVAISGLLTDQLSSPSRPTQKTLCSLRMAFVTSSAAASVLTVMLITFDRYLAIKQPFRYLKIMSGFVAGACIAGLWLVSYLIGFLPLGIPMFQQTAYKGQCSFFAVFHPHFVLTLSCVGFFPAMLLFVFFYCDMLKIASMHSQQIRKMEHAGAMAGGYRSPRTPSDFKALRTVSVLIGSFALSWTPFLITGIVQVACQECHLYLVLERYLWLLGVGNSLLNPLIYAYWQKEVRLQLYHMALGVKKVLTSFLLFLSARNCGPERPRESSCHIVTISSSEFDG
Procedure: Flp-In-CHO cells (Invitrogen, Cat. #R758-07) are maintained in Ham's F12 medium supplemented with 10% fetal bovine serum, 1% antibiotic mixture and 2 mM L-glutamine. The cells are transfected with a DNA mixture containing human GPR119 in pcDNA5/FRT vector and the pOG44 vector (1:9) using Fugene6 (Roche), according to the manufacturer's instruction. After 48 h, the medium is changed to medium supplemented with 400 μg/ml hygromycin B to initiate the selection of stably transfected cells.
To test the activity of compounds of the invention, Flp-In-CHO-hGPR119 cells are harvested and resuspended in DMEM plus 3% lipid-depleted fetal bovine serum. Forth μl of cells are plated in 384 well plates at a density of 15,000 cells/well. IBMX (3-isobutyl-1-methyl-xanthine) is added to the cells to a final concentration of 1 mM, followed by the addition of 500 nl of the compound to be tested. The cells are incubated at 37° C. for 30 minutes. Equal volume (20 μl) of the HTRF reagents, anti-cAMP-Cryptate and cAMP-XL665, are added to the cells. The plates are incubated at rt for 1 h and read on a HTRF reader according to the manufacturer's instruction.

| SMILES | EC50 [nM] |
| --- | --- |
| CCc1cnc(N2CCC(COc3c(F)cc(-c4cnc(C(N)=O)nc4)cc3F)CC2)nc1 [Example A35] | 9 |
| CC(C)(C)OC(=O)N1CCC(COc2c(F)cc(-c3cc[n+]([O-])cc3)cc2F)CC1 [Example E1, 4-(4-((1-(tert-butoxycarbonyl)piperidin-4-yl)methoxy)-3,5-difluorophenyl)pyridine 1-oxide] | 38 |
| CCc1cnc(N2CCC(COc3c(F)cc(-c4ccc(Cn5ccnc5)cc4)cc3F)CC2)nc1 [Example H4] | 92 |
| CCCS(=O)(=O)c1ccc(-c2cc(F)c(OCC3CCN(C(=O)OC4(C)CC4)CC3)c(F)c2)c(C)n1 [Example F4, 1-methylcyclopropyl 4-((2,6-difluoro-4-(2-methyl-6-(propylsulfonyl)pyridin-3-yl)phenoxy)methyl)piperidine-1-carboxylate] | 0.3 |
| CC1(OC(=O)N2CCC(COc3c(F)cc(-c4cnc(C(=O)NCCCO)nc4)cc3F)CC2)CC1 [Example J15] | 45 |
| CCc1cnc(N2CCC(COc3c(F)cc(-c4ccc(-c5nn[nH]n5)nc4)cc3F)CC2)nc1 [Example B5] | 79 |
| CCc1cnc(N2CCC(COc3c(F)cc(-c4ccc(S(C)(=O)=O)nc4)cc3F)CC2)nc1 [Example A22] | 2 |
| CCc1cnc(N2CCC(COc3c(F)cc(-c4ccc(CO)cc4)cc3F)CC2)nc1 [Example A14] | 5 |
| CCc1cnc(N2CCC(COc3c(F)cc(-c4cnn(CCN(C)C)c4)cc3F)CC2)nc1 [Example K1, 2-(4-(4-((1-(5-ethylpyrimidin-2-yl)piperidin-4-yl)methoxy)-3,5-difluorophenyl)-1H-pyrazol-1-yl)-N,N-dimethylethanamine] | 2070 |
| CCc1cnc(N2CCC(COc3c(F)cc(-c4ccc(-c5nnn(C)n5)cc4)cc3F)CC2)nc1 [Example C1, 2-(4-((3,5-difluoro-4′-(2-methyl-2H-tetrazol-5-yl)biphenyl-4-yloxy)methyl)piperidin-1-yl)-5-ethylpyrimidine] | 5 |
| CCc1cnc(N2CCC(COc3c(F)cc(-c4ccc(CN(C)C(C)=O)cc4)cc3F)CC2)nc1 [Example L1, N-((4′-((1-(5-ethylpyrimidin-2-yl)piperidin-4-yl)methoxy)-3′,5′-difluorobiphenyl-4-yl)methyl)-N-methylacetamide] | 62 |
| CCc1cnc(N2CCC(COc3c(F)cc(-c4ccc(C(C)(C)O)nc4)cc3F)CC2)nc1 [Example A38] | 29 |
| COc1cc(-c2cc(F)c(OCC3CCN(C(=O)OC(C)(C)C)CC3)c(F)c2)ccn1 [Example A20] | 46 |
| CCc1cnc(N2CCC(COc3c(F)cc(-c4ccc(S(C)(=O)=O)cn4)cc3F)CC2)nc1 [Example A1, 2-(4-((2,6-difluoro-4-(5-(methylsulfonyl)pyridin-2-yl)phenoxy)methyl)piperidin-1-yl)-5-ethylpyrimidine] | 1 |

More lines, in order of falling EC50, values ahead:

| EC50 [nM] | SMILES |
| --- | --- |
| 263 | CC1(OC(=O)N2CCC(COc3c(F)cc(-c4cnc5[nH]c(=O)oc5c4)cc3F)CC2)CC1 [Example J11] |
| 258 | CCc1cnc(N2CCC(COc3c(F)cc(-c4cnn(C)c4)cc3F)CC2)nc1 [Example A24] |
| 171 | CCc1cnc(N2CCC(COc3c(F)cc(-c4cnc(N5CCCC5)nc4)cc3F)CC2)nc1 [Example A16] |
| 47 | CC1(OC(=O)N2CCC(COc3c(F)cc(-c4cnc(C(=O)N5CC[C@H](O)C5)nc4)cc3F)CC2)CC1 [Example J19] |
| 37 | CC1(OC(=O)N2CCC(COc3c(F)cc(-c4ccc(C5(N)CC5)nc4)cc3F)CC2)CC1 [Example A39] |
| 28 | CCc1cnc(N2CCC(COc3c(F)cc(-c4ccc(Cn5ncnn5)cc4)cc3F)CC2)nc1 [Example H5] |
| 22 | CCc1cnc(N2CCC(COc3c(F)cc(-c4cccc(Cc5nnn(C)n5)c4)cc3F)CC2)nc1 [Example C5] |
| 19 | CCN(CCO)C(=O)c1ncc(-c2cc(F)c(OCC3CCN(C(=O)OC4(C)CC4)CC3)c(F)c2)cn1 [Example J5] |
| 14 | CN1CCN(C(=O)c2ncc(-c3cc(F)c(OCC4CCN(C(=O)OC5(C)CC5)CC4)c(F)c3)cn2)CC1 [Example J12] |
| 13 | CC1(OC(=O)N2CCC(COc3c(F)cc(-c4cnc(C(=O)N5CCC(O)CC5)nc4)cc3F)CC2)CC1 [Example J1] |
| 10 | CCOC(=O)CCNC(=O)c1ncc(-c2cc(F)c(OCC3CCN(C(=O)OC4(C)CC4)CC3)c(F)c2)cn1 [Example J8] |
| 3 | CCc1cnc(N2CCC(COc3c(F)cc(-c4ccc(-c5cnco5)cc4)cc3F)CC2)nc1 [Example G1, 5-(4′-((1-(5-ethylpyrimidin-2-yl)piperidin-4-yl)methoxy)-3′,5′-difluorobiphenyl-4-yl)oxazole] |
| 1 | CCCS(=O)(=O)c1ccc(-c2cc(F)c(OCC3CCN(C(=O)OC(C)CC)CC3)c(F)c2)c(C)n1 (stereo not shown) [Example F6, sec-butyl 4-((2,6-difluoro-4-(2-methyl-6-(propylsulfonyl)pyridin-3-yl)phenoxy)methyl)piperidine-1-carboxylate] |
| 1 | CC1(OC(=O)N2CCC(COc3c(F)cc(-c4ccc(S(C)(=O)=O)cc4)cc3F)CC2)CC1 [Example D1, 1-methylcyclopropyl 4-((3,5-difluoro-4′-(methylsulfonyl)biphenyl-4-yloxy)methyl)piperidine-1-carboxylate] |
| 0.7 | CCc1cnc(N2CCC(COc3c(F)cc(-c4ccc(S(=O)(=O)CC5(C)COC5)cc4)cc3F)CC2)nc1 [Example A3, 2-(4-((3,5-difluoro-4′-((3-methyloxetan-3-yl)methylsulfonyl)biphenyl-4-yloxy)methyl)piperidin-1-yl)-5-ethylpyrimidine] |
| 0.7 | CCc1cnc(N2CCC(COc3c(F)cc(-c4ccc(S(C)(=O)=O)cc4)cc3F)CC2)nc1 [Example A6] |
| 0.5 | CCc1cnc(N2CCC(COc3c(F)cc(-c4ccc(-n5cncn5)nc4C)cc3F)CC2)nc1 [Example F1, 2-(4-((2,6-difluoro-4-(2-methyl-6-(1H-1,2,4-triazol-1-yl)pyridin-3-yl)phenoxy)methyl)piperidin-1-yl)-5-ethylpyrimidine] |
